Results taken from PubChem BioAssay AID2060888 (Molecular Pharmacology Branch, DTP, NCI, 2025).
One block for each compound: values may come before it.

System: 695427-040-R-J1-PDC complex spheroid viability
Test: Anticancer human tumor 695427-040-R-J1-PDC patient-derived colon adenocarcinoma cell line growth inhibition [RAS]
Details: for viability, T/C: stronger effect = lower value
Summary of the method: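 Agents were tested in combination matrices in half-log decrements from a top concentration at or near clinical Cmax (10 microM if undetermined). Targets were multi-cell spheroids of tumour lines plus HUVEC and MSC stromal cells.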

[1] = curve of first compound, second compound 0.000949 µM
[2] = curve of first compound, second compound 0.003 µM
[3] = curve of first compound, second compound 0.00949 µM
[4] = curve of first compound, second compound 0.03 µM
[5] = curve of first compound, second compound 0.0949 µM
[6] = curve of first compound, second compound 0.3 µM
[7] = second compound 0.000949 µM, first compound 0.0316 µM
[8] = second compound 0.000949 µM, first compound 0.1 µM
[9] = second compound 0.000949 µM, first compound 0.316 µM
[10] = second compound 0.000949 µM, first compound 1 µM
[11] = second compound 0.003 µM, first compound 0.0316 µM
[12] = second compound 0.003 µM, first compound 0.1 µM
[13] = second compound 0.003 µM, first compound 0.316 µM
[14] = second compound 0.003 µM, first compound 1 µM
[15] = second compound 0.00949 µM, first compound 0.0316 µM
[16] = second compound 0.00949 µM, first compound 0.1 µM
[17] = second compound 0.00949 µM, first compound 0.316 µM
[18] = second compound 0.00949 µM, first compound 1 µM
[19] = second compound 0.03 µM, first compound 0.0316 µM
[20] = second compound 0.03 µM, first compound 0.1 µM
[21] = second compound 0.03 µM, first compound 0.316 µM
[22] = second compound 0.03 µM, first compound 1 µM
[23] = second compound 0.0949 µM, first compound 0.0316 µM
[24] = second compound 0.0949 µM, first compound 0.1 µM
[25] = second compound 0.0949 µM, first compound 0.316 µM
[26] = second compound 0.0949 µM, first compound 1 µM
[27] = second compound 0.3 µM, first compound 0.0316 µM
[28] = second compound 0.3 µM, first compound 0.1 µM
[29] = second compound 0.3 µM, first compound 0.316 µM
[30] = second compound 0.3 µM, first compound 1 µM
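Further: viability read after seven days of drug exposure.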
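Wherever viability, T/C is given: 100% = DMSO vehicle control viability.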

IC50 [1]: > 1000 nM
IC50 [2]: > 1000 nM
IC50 [3]: > 1000 nM
IC50 [4]: > 1000 nM
IC50 [5]: > 1000 nM
IC50 [6]: > 1000 nM
Structure (SMILES): CCN1CCN(Cc2ccc(Nc3ncc(F)c(-c4cc(F)c5nc(C)n(C(C)C)c5c4)n3)nc2)CC1 + CCn1c(-c2cccnc2C(C)OC)c2c3cc(ccc31)N1CCOC(CC(NC(=O)C(C(C)C)N(C)C(=O)C3(F)CCN(C(=O)C#CC(C)(C)N(C)C)CC3)C(=O)N3CCCC(N3)C(=O)OCC(C)(C)C2)C1
viability, T/C (second compound 0.000949 µM, first compound 0.00316 µM): 109%
viability, T/C (second compound 0.000949 µM, first compound 0.01 µM): 88.1%
viability, T/C [7]: 84.9%
viability, T/C [8]: 74.2%
viability, T/C [9]: 99.1%
viability, T/C [10]: 87.1%
viability, T/C (second compound 0.003 µM, first compound 0.00316 µM): 100%
viability, T/C (second compound 0.003 µM, first compound 0.01 µM): 86.3%
viability, T/C [11]: 86.3%
viability, T/C [12]: 82.3%
viability, T/C [13]: 86.2%
viability, T/C [14]: 93%
viability, T/C (second compound 0.00949 µM, first compound 0.00316 µM): 118%
viability, T/C (second compound 0.00949 µM, first compound 0.01 µM): 84.3%
viability, T/C [15]: 87.1%
viability, T/C [16]: 88.9%
viability, T/C [17]: 91.2%
viability, T/C [18]: 53.9%
viability, T/C (second compound 0.03 µM, first compound 0.00316 µM): 96.6%
viability, T/C (second compound 0.03 µM, first compound 0.01 µM): 88.1%
viability, T/C [19]: 74.4%
viability, T/C [20]: 84.4%
viability, T/C [21]: 107%
viability, T/C [22]: 90.7%
viability, T/C (second compound 0.0949 µM, first compound 0.00316 µM): 99.2%
viability, T/C (second compound 0.0949 µM, first compound 0.01 µM): 79%
viability, T/C [23]: 91.8%
viability, T/C [24]: 87.3%
viability, T/C [25]: 60.6%
viability, T/C [26]: 76.6%
viability, T/C (second compound 0.3 µM, first compound 0.00316 µM): 87.8%
viability, T/C (second compound 0.3 µM, first compound 0.01 µM): 83.2%
viability, T/C [27]: 84.9%
viability, T/C [28]: 79%
viability, T/C [29]: 65.9%
viability, T/C [30]: 60.6%

IC50 [1]: > 10000 nM
IC50 [2]: > 10000 nM
IC50 [3]: > 10000 nM
IC50 [4]: > 10000 nM
IC50 [5]: > 10000 nM
IC50 [6]: 2820 nM
Structure (SMILES): Cc1nc(N2CCC3(CC2)COC(C)C3N)c(CO)nc1Sc1ccnc(N)c1Cl (stereo unspecified) + CCn1c(-c2cccnc2C(C)OC)c2c3cc(ccc31)N1CCOC(CC(NC(=O)C(C(C)C)N(C)C(=O)C3(F)CCN(C(=O)C#CC(C)(C)N(C)C)CC3)C(=O)N3CCCC(N3)C(=O)OCC(C)(C)C2)C1
viability, T/C [7]: 84.9%
viability, T/C [8]: 93.2%
viability, T/C [9]: 75.4%
viability, T/C [10]: 64.3%
viability, T/C (second compound 0.000949 µM, first compound 3.16 µM): 60.4%
viability, T/C (second compound 0.000949 µM, first compound 10 µM): 61.3%
viability, T/C [11]: 94.2%
viability, T/C [12]: 70.6%
viability, T/C [13]: 71.4%
viability, T/C [14]: 63.2%
viability, T/C (second compound 0.003 µM, first compound 3.16 µM): 67.1%
viability, T/C (second compound 0.003 µM, first compound 10 µM): 47.3%
viability, T/C [15]: 104%
viability, T/C [16]: 82%
viability, T/C [17]: 83.9%
viability, T/C [18]: 57.8%
viability, T/C (second compound 0.00949 µM, first compound 3.16 µM): 67.1%
viability, T/C (second compound 0.00949 µM, first compound 10 µM): 49.3%
viability, T/C [19]: 75%
viability, T/C [20]: 85.8%
viability, T/C [21]: 63%
viability, T/C [22]: 63.8%
viability, T/C (second compound 0.03 µM, first compound 3.16 µM): 65.5%
viability, T/C (second compound 0.03 µM, first compound 10 µM): 53.4%
viability, T/C [23]: 78.2%
viability, T/C [24]: 83.7%
viability, T/C [25]: 74%
viability, T/C [26]: 68.1%
viability, T/C (second compound 0.0949 µM, first compound 3.16 µM): 63%
viability, T/C (second compound 0.0949 µM, first compound 10 µM): 52.7%
viability, T/C [27]: 85.2%
viability, T/C [28]: 70.9%
viability, T/C [29]: 70.5%
viability, T/C [30]: 51.4%
viability, T/C (second compound 0.3 µM, first compound 3.16 µM): 51.4%
viability, T/C (second compound 0.3 µM, first compound 10 µM): 43.5%

IC50 (compound alone, run of 06/10/2024): > 1000 nM
IC50 (curve of compound): > 1000 nM
Structure (SMILES): C=CC(=O)N1CCN(c2nc(OCC3CCCN3C)nc3c(F)c(-c4nc(N)cc(C)c4C(F)(F)F)c(Cl)cc23)C(C)C1 (stereo unspecified)
viability, T/C (compound 0.00316 µM): 97.3% [middle of 12 runs]
viability, T/C (compound 0.0316 µM): 100% [middle of 12 runs]
viability, T/C (compound 0.1 µM): 102% [middle of 12 runs]

IC50 (curve of first compound, second compound 0.0316 µM): > 1000 nM
IC50 (curve of first compound, second compound 0.1 µM): > 1000 nM
IC50 (curve of first compound, second compound 0.316 µM): > 1000 nM
IC50 (curve of first compound, second compound 1 µM): > 1000 nM
IC50 (curve of first compound, second compound 3.16 µM): > 1000 nM
IC50 (curve of first compound, second compound 10 µM): < 3.16 nM
Structure (SMILES): CCN1CCN(Cc2ccc(Nc3ncc(F)c(-c4cc(F)c5nc(C)n(C(C)C)c5c4)n3)nc2)CC1 + C#Cc1c(F)ccc2cc(O)cc(-c3ncc4c(N5CC6CCC(C5)N6)nc(OCC56CCCN5CC(F)C6)nc4c3F)c12
viability, T/C (second compound 0.0316 µM, first compound 0.00316 µM): 94.9%
viability, T/C (second compound 0.0316 µM, first compound 0.01 µM): 102%
viability, T/C (second compound 0.0316 µM, first compound 0.0316 µM): 85.8%
viability, T/C (second compound 0.0316 µM, first compound 0.1 µM): 88.4%
viability, T/C (second compound 0.0316 µM, first compound 0.316 µM): 100%
viability, T/C (second compound 0.0316 µM, first compound 1 µM): 106%
viability, T/C (second compound 0.1 µM, first compound 0.00316 µM): 93%
viability, T/C (second compound 0.1 µM, first compound 0.01 µM): 92.9%
viability, T/C (second compound 0.1 µM, first compound 0.0316 µM): 90.5%
viability, T/C (second compound 0.1 µM, first compound 0.1 µM): 79.4%
viability, T/C (second compound 0.1 µM, first compound 0.316 µM): 91.6%
viability, T/C (second compound 0.1 µM, first compound 1 µM): 96.3%
viability, T/C (second compound 0.316 µM, first compound 0.00316 µM): 83.1%
viability, T/C (second compound 0.316 µM, first compound 0.01 µM): 85.3%
viability, T/C (second compound 0.316 µM, first compound 0.0316 µM): 78.1%
viability, T/C (second compound 0.316 µM, first compound 0.1 µM): 78.6%
viability, T/C (second compound 0.316 µM, first compound 0.316 µM): 77.7%
viability, T/C (second compound 0.316 µM, first compound 1 µM): 85.6%
viability, T/C (second compound 1 µM, first compound 0.00316 µM): 75.2%
viability, T/C (second compound 1 µM, first compound 0.01 µM): 68.1%
viability, T/C (second compound 1 µM, first compound 0.0316 µM): 61%
viability, T/C (second compound 1 µM, first compound 0.1 µM): 60.5%
viability, T/C (second compound 1 µM, first compound 0.316 µM): 74.1%
viability, T/C (second compound 1 µM, first compound 1 µM): 71.3%
viability, T/C (second compound 3.16 µM, first compound 0.00316 µM): 53.3%
viability, T/C (second compound 3.16 µM, first compound 0.01 µM): 52.9%
viability, T/C (second compound 3.16 µM, first compound 0.0316 µM): 51.2%
viability, T/C (second compound 3.16 µM, first compound 0.1 µM): 48.2%
viability, T/C (second compound 3.16 µM, first compound 0.316 µM): 50.6%
viability, T/C (second compound 3.16 µM, first compound 1 µM): 62%
viability, T/C (second compound 10 µM, first compound 0.00316 µM): 41.1%
viability, T/C (second compound 10 µM, first compound 0.01 µM): 45.2%
viability, T/C (second compound 10 µM, first compound 0.0316 µM): 36.4%
viability, T/C (second compound 10 µM, first compound 0.1 µM): 33.1%
viability, T/C (second compound 10 µM, first compound 0.316 µM): 30.8%
viability, T/C (second compound 10 µM, first compound 1 µM): 32.6%
